{"source": "paper PMC9706920", "about": "“Aryloxypropanolamine targets amyloid aggregates and reverses Alzheimer-like phenotypes in Alzheimer mouse models” (Alzheimer's Research & Therapy, 2022)", "key": {"CYP 2C9": {"target": "T1, CYP 2C9 (Homo sapiens, UniProt P11712)", "T1 construct": "contained human liver microsomes (0.25 mg/ml); from tissue; host or cells: human liver microsomes", "T1 sequence (P11712 whole entry)": "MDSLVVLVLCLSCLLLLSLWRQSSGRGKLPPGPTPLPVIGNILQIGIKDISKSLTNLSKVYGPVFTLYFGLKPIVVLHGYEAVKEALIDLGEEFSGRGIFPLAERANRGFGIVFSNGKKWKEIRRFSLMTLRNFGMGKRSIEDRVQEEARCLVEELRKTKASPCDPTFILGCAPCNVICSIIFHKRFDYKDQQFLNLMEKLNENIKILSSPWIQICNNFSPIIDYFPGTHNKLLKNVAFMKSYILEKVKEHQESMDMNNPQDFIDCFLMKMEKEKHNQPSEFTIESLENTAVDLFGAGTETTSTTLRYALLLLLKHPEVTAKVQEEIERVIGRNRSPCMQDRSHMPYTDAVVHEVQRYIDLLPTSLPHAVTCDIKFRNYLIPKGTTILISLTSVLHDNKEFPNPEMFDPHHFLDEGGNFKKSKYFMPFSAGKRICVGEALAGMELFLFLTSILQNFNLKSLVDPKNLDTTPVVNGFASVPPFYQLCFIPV", "assay": "CYP450 inhibition assay, 2C9", "type": "in vitro ADME", "conditions": "YIAD002 10 μM, human liver microsomes; weak or no inhibition; read-out: CYP 2C9 inhibition, IC50 (inhibition criteria)", "procedure": "(§1) Incubation mixtures for Cytochrome P450s (CYPs) inhibition assay contained human liver microsomes (0.25 mg/ml), 0.1 M phosphate buffer (pH 7.4), 10 μM of YIAD002, and an enzyme substrate cocktail (phenacetin 50 μM, diclofenac 10 μM, S-mephenytoin 100 μM, dextromethorphan 5 μM, and midazolam 2.5 μM). The mixture was pre-incubated at 37°C for 5 min and 1 mM NAPDH was added to initiate reactions. After 15 min of incubation, acetonitrile with terfenadine was added to stop reactions and microsomal solutions were centrifuged at 14,000 rpm at 4°C for 5 min. For LC-MS/MS analysis, supernatants were injected on a Kinetex C18 column (2.1 × 100 mm, 2.6 μm particle size, Phenomenex, USA). The composition of the mobile phase was 0.1% formic acid in water (A) and 0.1% formic acid in acetonitrile (B)."}, "CYP 2D6": {"target": "T2, CYP 2D6 (Homo sapiens, UniProt P10635)", "T2 construct": "contained human liver microsomes (0.25 mg/ml); from tissue; host or cells: human liver microsomes", "T2 sequence (P10635 whole entry)": "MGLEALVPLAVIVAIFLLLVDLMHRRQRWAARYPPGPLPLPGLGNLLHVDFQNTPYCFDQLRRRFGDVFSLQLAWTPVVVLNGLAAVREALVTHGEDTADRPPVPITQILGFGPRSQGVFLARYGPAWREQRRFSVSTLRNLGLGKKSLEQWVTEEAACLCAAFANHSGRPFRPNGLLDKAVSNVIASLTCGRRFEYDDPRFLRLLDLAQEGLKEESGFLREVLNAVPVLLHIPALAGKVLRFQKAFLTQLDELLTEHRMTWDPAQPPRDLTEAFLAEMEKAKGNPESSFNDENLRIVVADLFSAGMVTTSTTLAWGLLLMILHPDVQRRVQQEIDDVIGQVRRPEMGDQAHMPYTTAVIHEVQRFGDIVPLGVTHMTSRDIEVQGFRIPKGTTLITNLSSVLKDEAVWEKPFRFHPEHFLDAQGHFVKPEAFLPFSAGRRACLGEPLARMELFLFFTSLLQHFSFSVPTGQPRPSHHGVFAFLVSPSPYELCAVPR", "assay": "CYP450 inhibition assay, 2D6", "type": "in vitro ADME", "conditions": "YIAD002 10 μM, human liver microsomes; weak or no inhibition; read-out: CYP 2D6 inhibition, IC50 (inhibition criteria)", "procedure": "as §1"}, "Plasma stability, rat": {"assay": "Plasma stability, rat", "type": "in vitro ADME", "conditions": "10 μM, 37°C, vs 0 min", "procedure": "To assess the plasma stability of YIAD002, […] rat plasma and incubated at 37°C for the following time points: 0, 30, and 120 min. At the end of incubation, acetonitrile with chlorpropamide was added to stop reactions. The solutions were centrifuged at 14,000 rpm at 4°C for 5 min and the supernatant was analyzed with LC-MS/MS. High performance liquid chromatography was carried out on a Kinetex C18 column (2.1 × 100 mm, 2.6 μm particle size, Phenomenex, USA). The composition of the mobile phase was 0.1% formic acid in water (A) and 0.1% formic acid in acetonitrile (B)."}, "APP/PS1 mice [1]": {"test_system": "APP/PS1 mice", "assay": "Morris water maze in APP/PS1 mice", "type": "in vivo, mouse", "conditions": "30 mg/kg/day oral, 10 weeks, vs vehicle", "procedure": "(§2) To test whether YIAD002 could reduce amyloid plaques in another AD mouse model, APP/PS1 transgenic mice (n = 24) and wildtype mice (n = 5) were assessed at the age of 7.5 months. YIAD002 was dissolved in PBS (0.5% methylcellulose) at two different concentrations (10 and 30 mg/kg/day) and administrated daily to APP/PS1 mice (n = 8 for each group) via oral gavage for 8 weeks. As a control, vehicle solutions were orally administrated to littermate APP/PS1 mice (n = 8) and wildtype mice (n = 5).\nThe Morris water maze was used to evaluate whether YIAD002 could improve cognitive function in APP/PS1 mice during the tenth week of administration. A circular stainless pool with a radius of 90 cm and height of 50 cm with water kept at 22±1°C. Nontoxic opaque white paint was used to hide a platform with a radius of 9 cm hidden 1 cm beneath the surface. The training phase consisted of 5 days, in which the mice were given 60 s to find the platform. On circumstances where a mouse could not reach the platform within 60 s, it was placed on the platform where it had to remain for 10 s. The probe test took place on the sixth day, in which the platform was removed and the mice swam freely for 60 s. Swimming trajectories were recorded and analyzed using SMART VIDEO TRACKING Software (Panlab, USA). To assess cognitive improvement in YIAD002-treated mice groups, latency to target (seconds) and the number of target crossings were compared to vehicle-treated APP/PS1 mice. After the probe trial, the mice were sacrificed and the collected brains were fixed in formalin."}, "APP/PS1 mice [2]": {"test_system": "APP/PS1 mice", "assay": "6E10 immunohistochemical staining of amyloid plaques in APP/PS1 mice", "type": "in vivo, mouse", "conditions": "YIAD002-treated APP/PS1 mice vs vehicle", "procedure": "as §2\nFormalin-fixed APP/PS1 mice brains were infiltrated with paraffin using a tissue processor (LEICA ASP300S, Germany). Blocks of tissues were produced with a tissue embedding center and sectioned into thin slices (4 μm), which were mounted onto glass slides. To prepare for 6E10 staining, slides were deparaffinized, rehydrated, and blocked with 0.03% H2O2 to remove endogenous peroxidase. For antigen retrieval, slides were boiled in Tris/EDTA solution (pH 9.0) using a pressure cooker. Unspecific binding was blocked through incubation in 4% BSA at RT for 30 min. Slides were immunolabeled with anti-6E10 antibody (1:2000, Novus Biologicals NBP2-62566) at RT for 1 h and HRP-labeled secondary antibody (Dako K4003) for 30 min and subsequently stained with DAB (3,3′-Diaminobenzidine) and counterstained with Mayer’s hematoxylin. Stained slides were scanned using ZEISS Axio scan.Z1 microscope. Amyloid plaques were quantified using Image-J software (NIH)."}, "α-synuclein aggregates": {"target": "α-synuclein aggregates (Homo sapiens, UniProt P37840)", "assay": "ThT dissociation assay against α-synuclein aggregation", "type": "biochemical", "conditions": "α-synuclein 35 μM pre-aggregated 3 days, compound additional 3 days", "procedure": "[picture] Figure S5. ThT dissocation assay against α-synuclein aggregation. Dissociative effects of YIAD001 and YIAD002 against α-synuclein aggregation were evaluated using ThT fluorescence. α-synuclein (35 μM) was pre-aggregated for 3 days. YIAD001 and YIAD002 were added to and co-incubated with pre-aggregated samples for an additional 3 days. Aggregation time for α-synuclein is indicated as ‘+’ for 3 days and ‘++’ for 6 days. All fluorescence intensities were normalized and statistically compared to α-synuclein-only 3 days (+) control (100%). One-way analysis of variance followed by Bonferroni’s post-hoc comparisons tests were performed in all statistical analyses (****P < 0.0001). Data are presented as mean ± SEM. Abbreviations: Aggr. = Aggregation, Cpd. = Compound."}}, "data": [{"compound": "CCC(C)(C)c1ccc(OCC(O)CN2CCCC2)c(C(C)(C)CC)c1.Cl", "note": "(stereo not shown) [YIAD002, 1-(3-(2,4-Di-tert-pentylphenoxy)-2-hydroxypropyl)pyrrolidin-1-ium chloride]", "values": [{"measurement": "IC50", "setting": "CYP 2C9", "value": "> 10", "unit": "µM"}, {"measurement": "IC50", "setting": "CYP 2D6", "value": "> 10", "unit": "µM"}, {"measurement": "Compound remaining in rat plasma", "setting": "Plasma stability, rat; 30 min", "value": 94.5, "unit": "%"}, {"measurement": "Compound remaining in rat plasma", "setting": "Plasma stability, rat; 120 min", "value": 87.7, "unit": "%"}, {"measurement": "Escape latency after 5 days of training", "setting": "APP/PS1 mice [1]; 7.5-month-old APP/PS1 mice", "value": "significantly shortened"}, {"measurement": "Latency to target, probe trial", "setting": "APP/PS1 mice [1]; APP/PS1 mice", "value": "significantly shorter"}, {"measurement": "Target crossings, probe trial", "setting": "APP/PS1 mice [1]; APP/PS1 mice", "value": "increased target crossings"}, {"measurement": "Number of plaques, cortex", "setting": "APP/PS1 mice [2]", "value": "significantly reduced"}, {"measurement": "Plaque size, hippocampus", "setting": "APP/PS1 mice [2]", "value": "significantly reduced"}, {"measurement": "Size of plaques, cortex", "setting": "APP/PS1 mice [2]", "value": "significantly reduced"}, {"measurement": "Area of 6E10-stained plaques, whole brain", "setting": "APP/PS1 mice [2]; dose not given", "value": "reduced"}, {"measurement": "Number of 6E10-stained plaques, whole brain", "setting": "APP/PS1 mice [2]; dose not given", "value": "reduced"}, {"measurement": "Interaction with α-synuclein aggregates (ThT dissociation)", "setting": "α-synuclein aggregates", "value": "did not interact with α-synuclein aggregates"}]}]}
